Earlier results as cited in US6184241A, “Aspartic protease inhibitors” (Kansas State University Research Foundation, priority 1998, dated 2001).

Conditions: heterocyclic ring

## c1c[nH]cn1 [imidazole]
  pKa: 6.0-7.0
